Data published in patent US11752125B2, “Anti-neuroinflammatory and protective compounds in Achillea fragrantissima” (THE STATE OF ISRAEL MINISTRY OF AGRICULTURE & RURAL …, priority 2013, dated 2023).

How the values were obtained:
SAPK/JNK = test: Aβ25-35-induced SAPK/JNK phosphorylation in N2a cells (ELISA); type: cell-based; details: concomitant treatment 30-40 min
Protocol: 7. Measure the amount of total and phosphorylated SAPK/JNK in cell lysates) of N2a cells, by ELISA using the PathScan total SAPK/JNK sandwich ELISA kit (Cell Signaling TECHNOLOGY) and the PathScan phosoho-SAPK/JNK (Thr183/Tyr185) sandwich ELISA kit (Cell Signaling TECHNOLOGY), respectively, according to the manufacturer's instructions. 8. Determine the optical density at 450 nm using a microplate reader.
(§1) N2a cells were treated concomitantly with Aβ25-35 and TIF for 40 min. Cells were extracted and the levels of phosphorylated or total SAPK/JNK were determined by specific ELISA kits. The results are the mean±SEM of two different experiments (n=4) for phosphorylated SAPK/JNK and three different experiments (n=6) for total SAPK/JNK.
as §1, with “achillolide A” for “TIF”
N2a cells were treated concomitantly with Aβ25-35 and memantine for 30 min. Cells were extracted and the levels of phosphorylated SAPK/JNK were determined by a specific ELISA kit. The results are the mean±SEM of one experiment (n=2).

MEK1 = test: Aβ25-35-induced MEK1 phosphorylation in N2a cells (ELISA); type: cell-based; details: concomitant treatment 30-40 min
Protocol: 7. Measure the amount of total and phosphorylated MEK1 in cell lysates of N2a cells, by ELISA using the PathScan total MEK1 sandwich ELISA kit (Cell Signaling TECHNOLOGY) or the PathScan phosoho-MEK1 (Ser217/221) sandwich ELISA kit (Cell Signaling TECHNOLOGY), respectively. 8. Determine the optical density at 450 nm using a microplate reader.
N2a cells were treated concomitantly with Aβ25-35 and TTF for 30 min. Cells were extracted and the levels of phosphorylated or total MEK1 were determined by specific ELISA kits. The results are the mean±SEM of two different experiments for phosphoMEK1 (n=4) (see FIG. 12A) and of one experiment for total MEK1 (n=2) (see FIG. 12B).
N2a cells were treated concomitantly with Aβ25-35 and AcA for 40 min. Cells were extracted and the levels of phosphorylated or total MEK1 were determined by specific ELISA kits. The results are the mean±SEM of one experiment (n=2).
N2a cells were treated concomitantly with A25-35 and memantine for 30 min. Cells were extracted and the levels of phosphorylated or total MEK1 were determined by specific ELISA kits. The results are the mean±SEM of one experiment (n=2).

[1] = DPPH free radical scavenging assay; details: cell free; 8 min
Protocol: (§2) Antioxidant activity was measured using the 2,2-diphenyl-1-pieryhydrazyl (DPPH) radical scavenging assay. Different dilutions of TTF (or control drugs) were added to 1 mL of DPPH (3.9 mg/100 mL methanol) in test tubes wrapped in aluminum foil. Absorbance (A) was measured at 517 nm after 8 min incubation in the dark. The scavenging ability (%) of the samples was calculated as (Acontrol−Asample)/Acontrol×100).
as §2, with “achillolide A or quercetin” for “TTF (or control drugs)”
The DPPH scavenging ability of TTF, memantine and quercetin were compared for eight minutes. Results are shown in FIG. 7 and are the mean±SEM of two experiments performed in duplicates (n=4).
The DPPH scavenging ability of achillolide A and quercetin were tested for eight minutes. Values represent the mean±SEM (n=4 for each concentration). **p<0.01; ***p<0.001, compared to a mixture without achillolide A or quercetin.

| Structure (SMILES) | effect on Aβ25-35-induced phosphorylation of SAPK/JNK (SAPK/JNK) | effect on Aβ25-35-induced phosphorylation of MEK1 (MEK1) | IC50 [1] [µM] | inhibition of DPPH absorbance at 517 nm (maximal scavenging ability) [1] [%] |
| --- | --- | --- | --- | --- |
| COc1cc(-c2oc3cc(OC)c(OC)c(O)c3c(=O)c2O)ccc1O [TTF, 3,5,4′-trihydroxy-6,7,3′-trimethoxyflavone] | significantly inhibited | significantly inhibited | 45 | 60 |
| C=C1CCC2=C(CO)C(=O)O[C@H]2/C=C(\C)[C@H](OC(C)=O)CC1=O [achillolide A] | significantly decreased | does not affect | 45 | 60 |
| CC12CC3CC(C)(C1)CC(N)(C3)C2 [memantine, reference compound] | down-regulates | down-regulates |  | 7 |
| O=c1c(O)c(-c2ccc(O)c(O)c2)oc2cc(O)cc(O)c12 [quercetin, 3,3′,4′,5,7-Pentahydroxyflavone, reference compound] |  |  |  | 90 |
